Test results as given in patent US12371454B2, “Cyclic peptide compound having Kras inhibitory action” (priority 2019, dated 2025).
Starred links: 1 amine or outer side, 2 acyl side, 3 side chain; linkers in the order of their positions; H or OH if unused. Positions of bridges follow the written chain, without caps; N, C: chain ends. Non-standard residues stand in square brackets, D forms with d. Residues, ends and D or L forms follow the SMILES beside them. *: point of attachment. NMeAbu(3,3-F2-piperidino) = CN[C@@H](CCN1CCCC(F)(F)C1)C(=O)O; hPhe(3-Cl-4-CF3) = N[C@@H](CCc1ccc(C(F)(F)F)c(Cl)c1)C(=O)O; NMeDab(N,N-(CH2CF2CH2)) = CN[C@@H](CCN1CC(F)(F)C1)C(=O)O; Piperazinyl(4-(3-oxetanyl)) = C1OCC1N1CCN(*)CC1; NMePhe(4-Cl) = CN[C@@H](Cc1ccc(Cl)cc1)C(=O)O; NMePhe(2-CN) = CN[C@@H](Cc1ccccc1C#N)C(=O)O; NMePhe(4-Me) = CN[C@@H](Cc1ccc(C)cc1)C(=O)O; NMedβ3hAla = C[C@H](CC(=O)[*:2])N(C)[*:1]; X20 = O=C([C@H](Cc1ccc(Br)s1)N[*:1])[*:2]; NMeGly(cPent) = CN[C@H](C(=O)O)C1CCCC1; Phe(3-I) = N[C@@H](Cc1cccc(I)c1)C(=O)O; NMeY = CN[C@@H](Cc1ccc(O)cc1)C(=O)O; NMeCha = CN[C@@H](CC1CCCCC1)C(=O)O; NMeChg = CN[C@H](C(=O)O)C1CCCCC1; NMeI = CC[C@H](C)[C@H](NC)C(=O)O; NMeD = CN[C@@H](CC(=O)O)C(=O)O; NMeL = CN[C@@H](CC(C)C)C(=O)O; NMeV = CN[C@H](C(=O)O)C(C)C; d(β3hA) = C[C@@H](N)CC(=O)O; dPip = O=C(O)[C@H]1CCCCN1; NMeA = CN[C@@H](C)C(=O)O; NMeAib = CNC(C)(C)C(=O)O; Nle = CCCC[C@H](N)C(=O)O; Piperidide = C1CCN(*)CC1; Pra = C#CC[C@H](N)C(=O)O; Ac5c = NC1(C(=O)O)CCCC1; Aze = O=C(O)[C@@H]1CCN1; CF3 = FC(F)(F)*; Sar = CNCC(=O)O

The compounds below were run against T1, Kras and SOS1 (biotin-tagged human Kras loaded with GDP, His-tagged human SOS1) (Homo sapiens, UniProt P01116, G12D) (assay: Protein-protein interaction inhibition between Kras and SOS1 (KrasGl2D-SOS PPI) using AlphaScreen). Settings: AlphaScreen; biotin-tagged human Kras loaded with GDP, His-tagged human SOS1; read-out: KRAS G12D-SOS PPI IC50.
T1 construct: made in house; host or cells: E. coli (stated for Kras only)
Format: binding
Protocol: Protein-Protein Interaction Inhibition Between Kras and SOS1 (KrasGl2D-SOS PPI) Using AlphaScreen
Protein-protein interaction inhibition (PPI) between Kras and SOS1 was measured by energy transfer from nickel-conjugated donor beads to streptavidin-conjugated acceptor beads using biotin-tagged human Kras expressed in E. coli and loaded with GDP after purification and His-tagged human SOS1 enzyme. This measurement utilizes the phenomenon in which donor beads are irradiated with light at 680 nm, such that energy is transferred to acceptor beads through singlet oxygen and light at 520-620 nm is detected from the acceptor beads.
Inhibition of binding between K-ras and SOS1 is known to inhibit signaling downstream of Kras.

T1 sequence (P01116 1-188 isoform P01116-2 G12D): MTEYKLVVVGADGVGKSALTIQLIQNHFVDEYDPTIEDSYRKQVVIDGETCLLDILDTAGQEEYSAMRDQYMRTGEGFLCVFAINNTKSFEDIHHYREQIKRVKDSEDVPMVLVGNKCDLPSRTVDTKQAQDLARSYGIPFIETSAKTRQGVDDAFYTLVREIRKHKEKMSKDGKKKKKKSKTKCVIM

Point of comparison: `C#CC[C@@H]1NC(=O)[C@H](Cc2cccc(I)c2)NC(=O)CN(C)C(=O)[C@H](Cc2ccc(OC(F)(F)F)cc2)N(C)C(=O)CN(C)C(=O)CN(C)C(=O)[C@H]([C@@H](C)CC)NC(=O)[C@H](CC(C)C)N(C)C(=O)C[C@@H](C(=O)N2CCCCC2)N(C)C(=O)[C@H](CC(C)C)NC(=O)C(C)(C)N(C)C1=O` [Compound 1219] ([NMeL]I[Sar][Sar][NMeY](CF3)[Sar][Phe(3-I)][Pra][NMeAib]L[NMeD]-Piperidide; lactam N-11), IC50 16 nM. Against it:
- CCCC[C@@H]1NC(=O)[C@H](CC(C)C)N(C)C(=O)C[C@@H](C(=O)N2CCCCC2)N(C)C(=O)[C@H](C2CCCCC2)N(C)C(=O)C2(CCCC2)NC(=O)[C@@H]2CCCN2C(=O)[C@H](CCc2ccc(C(F)(F)F)c(Cl)c2)NC(=O)CN(C)C(=O)[C@H](CC2CCCCC2)N(C)C(=O)CN(C)C(=O)CN(C)C1=O [Compound 1723] ([NMeL][Nle][Sar][Sar][NMeCha][Sar][hPhe(3-Cl-4-CF3)]P[Ac5c][NMeChg][NMeD]-Piperidide; lactam N-11) — 4.4-fold lower, 3.6 nM
- CC[C@H](C)[C@@H]1NC(=O)[C@H](C)N(C)C(=O)C[C@@H](C(=O)N2CCCCC2)N(C)C(=O)[C@H](C(C)C)N(C)C(=O)[C@H](CC(C)C)NC(=O)[C@H](CCN2CC(F)(F)C2)N(C)C(=O)[C@H](CCc2ccc(C(F)(F)F)c(Cl)c2)NC(=O)CN(C)C(=O)[C@H](CC2CCCCC2)N(C)C(=O)CN(C)C(=O)CN(C)C1=O [Compound 331] ([NMeA]I[Sar][Sar][NMeCha][Sar][hPhe(3-Cl-4-CF3)][NMeDab(N,N-(CH2CF2CH2))]L[NMeV][NMeD]-Piperidide; lactam N-11) — 1.9-fold higher, 30 nM
- CC[C@H](C)[C@@H]1NC(=O)[C@H](CC(C)C)N(C)C(=O)C[C@@H](C(=O)N(C)C)N(C)C(=O)[C@H](C2CCCC2)N(C)C(=O)[C@H](C)NC(=O)[C@H](CCN2CCCC(F)(F)C2)N(C)C(=O)[C@H](CCc2ccc(C(F)(F)F)c(Cl)c2)NC(=O)CN(C)C(=O)[C@H](CC2CCCCC2)N(C)C(=O)[C@@H]2CCN2C(=O)[C@H](C)N(C)C1=O [Compound 1081] ([NMeL]I[NMeA][Aze][NMeCha][Sar][hPhe(3-Cl-4-CF3)][NMeAbu(3,3-F2-piperidino)]A[NMeGly(cPent)][NMeD]-NMe2; lactam N-11) — 1.6-fold higher, 25 nM
- CCCC[C@@H]1NC(=O)[C@H](Cc2ccc(Br)s2)NC(=O)CN(C)C(=O)[C@H](Cc2ccc(Cl)cc2)N(C)C(=O)CN(C)C(=O)CN(C)C(=O)[C@H]([C@@H](C)CC)NC(=O)[C@H](CC(C)C)N(C)C(=O)C[C@@H](C(=O)N2CCCCC2)N(C)C(=O)[C@H](CC(C)C)NC(=O)C(C)(C)N(C)C1=O [Compound 1216] ([NMeL]I[Sar][Sar][NMePhe(4-Cl)][Sar][X20][Nle][NMeAib]L[NMeD]-Piperidide; lactam N-11) — 7.5-fold higher, 120 nM
- CC[C@H](C)[C@@H]1NC(=O)[C@H](CC(C)C)N(C)C(=O)C[C@@H](C)N(C)C(=O)[C@H](C(C)C)N(C)C(=O)C2(CCCC2)NC(=O)[C@@H]2CCCN2C(=O)[C@H](CCc2ccc(C(F)(F)F)c(Cl)c2)NC(=O)CN(C)C(=O)[C@H](Cc2ccccc2C#N)N(C)C(=O)CN(C)C(=O)CN(C)C1=O [Compound 357] (cyclo([Ac5c][NMeV][NMedβ3hAla][NMeL]I[Sar][Sar][NMePhe(2-CN)][Sar][hPhe(3-Cl-4-CF3)]P)) — within 1.5-fold, 22 nM
- CC[C@H](C)[C@@H]1NC(=O)[C@H](C)N(C)C(=O)C[C@@H](C(=O)N(C)C)N(C)C(=O)[C@H]([C@@H](C)CC)N(C)C(=O)C2(CCCC2)NC(=O)[C@H](Cc2ccc(OC)cc2)N(C)C(=O)[C@H](CCc2ccc(C(F)(F)F)c(Cl)c2)NC(=O)CN(C)C(=O)[C@H](Cc2ccc(C)cc2)N(C)C(=O)[C@@H]2CCN2C(=O)[C@H](C)N(C)C1=O [Compound 1903] ([NMeA]I[NMeA][Aze][NMePhe(4-Me)][Sar][hPhe(3-Cl-4-CF3)][NMeY](Me)[Ac5c][NMeI][NMeD]-NMe2; lactam N-11) — 4-fold lower, 4 nM
- CC[C@H](C)[C@@H]1NC(=O)[C@H](C)N(C)C(=O)C[C@@H](C)NC(=O)[C@H](C(C)C)N(C)C(=O)C2(CCCC2)NC(=O)[C@@H]2CCCN2C(=O)[C@H](CCc2ccc(C(F)(F)F)c(Cl)c2)NC(=O)[C@H]2CCCCN2C(=O)[C@H](CC2CCCCC2)N(C)C(=O)CN(C)C(=O)CN(C)C1=O [Compound 746] (cyclo([Ac5c][NMeV][d(β3hA)][NMeA]I[Sar][Sar][NMeCha][dPip][hPhe(3-Cl-4-CF3)]P)) — 8.1-fold higher, 130 nM
- CC[C@H](C)[C@@H]1NC(=O)[C@H](CC(C)C)N(C)C(=O)C[C@@H](C(=O)N2CCN(C3COC3)CC2)NC(=O)[C@H]([C@@H](C)CC)N(C)C(=O)C2(CCCC2)NC(=O)[C@@H]2CCCN2C(=O)[C@H](CCc2ccc(C(F)(F)F)c(Cl)c2)NC(=O)CN(C)C(=O)[C@H](CC2CCCCC2)N(C)C(=O)CN(C)C(=O)CN(C)C1=O [Compound 1191] ([NMeL]I[Sar][Sar][NMeCha][Sar][hPhe(3-Cl-4-CF3)]P[Ac5c][NMeI]D-{Piperazinyl(4-(3-oxetanyl))}; lactam N-11) — 2.4-fold lower, 6.7 nM
